The text below walks through data of US20070155736A1, “FLUORINATED PHNO AND ANALOGUES THEREOF” (Clara Inc., priority 2005, published 2007).

Data set [1] has as its target T1, rat cloned D3 receptor (Rattus norvegicus, UniProt P19020).
T1 construct: expressed in transfected cells
Description: Binding to rat cloned D3 receptor using 1.6 nM [3H]-raclopride. From the text:
(§1) It is herein submitted that the short-term use of tracer doses of a compound of the invention, wherein R^1 is C1-6alkyl in which one hydrogen atom on the alkyl chain in replaced with radioactive fluoro, in radioimaging procedures will be of diagnostic and therapeutic importance in dopamine-related disorders.

In data set [2] the target is T2, high-affinity state of dopamine D2 receptors (Rattus norvegicus, UniProt P61169).
T2 construct: from tissue; host or cells: rat striatum, homogenized
T2 sequence (P61169 whole entry): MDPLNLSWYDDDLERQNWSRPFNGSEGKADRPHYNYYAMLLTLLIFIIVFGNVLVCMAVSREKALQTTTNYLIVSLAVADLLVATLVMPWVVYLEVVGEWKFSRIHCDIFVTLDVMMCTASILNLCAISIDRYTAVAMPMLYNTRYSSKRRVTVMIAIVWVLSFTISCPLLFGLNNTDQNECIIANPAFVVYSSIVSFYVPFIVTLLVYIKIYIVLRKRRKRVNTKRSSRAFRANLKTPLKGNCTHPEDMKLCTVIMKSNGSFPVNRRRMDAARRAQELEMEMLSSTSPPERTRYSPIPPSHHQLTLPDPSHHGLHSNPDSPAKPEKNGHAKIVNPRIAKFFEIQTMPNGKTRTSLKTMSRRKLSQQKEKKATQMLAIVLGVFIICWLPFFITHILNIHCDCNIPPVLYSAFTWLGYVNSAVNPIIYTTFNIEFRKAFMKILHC
Put plainly: Biological potency on the high-affinity state of dopamine D2 receptors in rat homogenized striatal tissue. Conditions: [3H]-domperidone. The format is binding.
Excerpt: as §1

Data set [3] deals with D2^High receptors (Homo sapiens, UniProt P14416). Conditions: human volunteer, PET.
Sequence of D2^High receptors (P14416 whole entry): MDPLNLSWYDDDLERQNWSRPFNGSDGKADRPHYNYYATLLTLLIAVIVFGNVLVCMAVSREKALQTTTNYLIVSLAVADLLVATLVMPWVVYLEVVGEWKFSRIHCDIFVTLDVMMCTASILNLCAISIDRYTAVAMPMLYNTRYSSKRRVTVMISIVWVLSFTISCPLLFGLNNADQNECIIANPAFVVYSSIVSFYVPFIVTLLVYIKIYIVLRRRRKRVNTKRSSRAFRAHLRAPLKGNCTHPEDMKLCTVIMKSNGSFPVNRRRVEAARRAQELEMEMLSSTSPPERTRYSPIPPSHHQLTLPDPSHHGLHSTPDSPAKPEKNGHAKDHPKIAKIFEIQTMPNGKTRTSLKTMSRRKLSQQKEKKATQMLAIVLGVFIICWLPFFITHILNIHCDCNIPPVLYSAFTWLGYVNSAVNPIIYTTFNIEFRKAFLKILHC
Description: After a brief transmission scan for attenuation correction of the emission scans, emission scans are obtained every minute for the first 15 min, and then every 5 min until the end of the study at 75 min. The PET scanning is conducted by using a dedicated brain scanner, GEMS PC2048-15B PET camera (General Electric Medical Systems) that produces fifteen 6.5 mm-thick slices with a resolution of 5-6 mm. The volunteer is scanned lying down and the head fixed by using a thermoplastic face mask. For accurate anatomical position of the various brain regions, each volunteer receives an MRI (magnetic resonance imaging) scan. The regions of interest are transferred to the PET images by using Alice™ 3.1 software.
The regions of interest include the head of the caudate nucleus. […] Several hours after the initial injection of (+)-[^18F]-PHNO, a second injection of (+)-[^18F]-PHNO is given intravenously at the same time as a very low dose of non-radioactive (+)PHNO, (+)-F-PHNO or a very low dose of apomorphine. […] The density of the D2^High sites in the caudate nucleus that are labeled by (+)-[^18F]-PHNO is calculated, knowing the specific activity of the tracer injected and the amount of radioactivity detected by the positron imaging camera.
The conditions of data set [4]: in vivo; cited from earlier work.

Where a name gives a salt, the structure may show the parent alone.

T1 sequence (P19020 whole entry): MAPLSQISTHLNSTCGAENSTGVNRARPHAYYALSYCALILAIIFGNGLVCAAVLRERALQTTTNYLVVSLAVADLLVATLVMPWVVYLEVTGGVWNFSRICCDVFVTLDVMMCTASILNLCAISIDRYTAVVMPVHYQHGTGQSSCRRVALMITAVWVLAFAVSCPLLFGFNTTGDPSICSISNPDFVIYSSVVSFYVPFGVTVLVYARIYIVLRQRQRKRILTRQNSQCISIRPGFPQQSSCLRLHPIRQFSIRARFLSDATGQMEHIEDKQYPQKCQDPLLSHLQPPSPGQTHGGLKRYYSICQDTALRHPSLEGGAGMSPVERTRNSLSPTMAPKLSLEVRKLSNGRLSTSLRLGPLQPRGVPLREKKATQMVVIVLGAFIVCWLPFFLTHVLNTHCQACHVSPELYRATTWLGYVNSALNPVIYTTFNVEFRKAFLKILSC

In the case of `Oc1ccc2c(c1)[C@H]1OCCN(CCCF)[C@@H]1CC2` (as salt: hydrochloride) [(+)-F-PHNO, (4aR,10bR)-4-(3-Fluoropropyl)-3,4,4a,5,6,10b-hexahydro-2H-naphtho[1,2-b][1,4]oxazin-9-ol Hydrochloride], the melting point fell in the range of 253 to 255 °C. For the compound `Oc1ccc2c(c1)[C@H]1OCCN(CCCCF)[C@@H]1CC2` [(+)-F-But-HNO, (4aR,10bR)-4-(4-Fluorobutyl)-3,4,4a,5,6,10b-hexahydro-2H-naphtho[1,2-b][1,4]oxazin-9-ol Hydrochloride], the Kd in data set [1] was determined as 34 nM; in data set [2] it was 20 ± 8.7 nM.

With `Oc1ccc2c(c1)[C@H]1OCCN(CCF)[C@@H]1CC2` [(+)-F-EHNO, (4aR,10bR)-4-(2-Fluoroethyl)-3,4,4a,5,6,10b-hexahydro-2H-naphtho[1,2-b][1,4]oxazin-9-ol Hydrochloride], the figures for the Kd in data set [1] and in data set [2] were 1.7 nM and 1.7 ± 0.3 nM, respectively.

`Oc1ccc2c(c1)[C@H]1OCCN(CCCCCCF)[C@@H]1CC2` [(+)-F-Hex-HNO, (4aR,10bR)-4-(6-Fluorohexyl)-3,4,4a,5,6,10b-hexahydro-2H-naphtho[1,2-b][1,4]oxazin-9-ol Hydrochloride]: the Kd was determined as 45 nM in data set [1] and 52 ± 27 nM in data set [2]. In the case of `Oc1ccc2c(c1)[C@H]1OCCN(CCCF)[C@@H]1CC2` [(+)-F-PHNO, (4aR,10bR)-4-(3-Fluoropropyl)-3,4,4a,5,6,10b-hexahydro-2H-naphtho[1,2-b][1,4]oxazin-9-ol Hydrochloride], the Kd in data set [1] turned out to be 0.38 nM; in data set [2] it was 0.46 ± 0.06 nM. For `Oc1ccc2c(c1)[C@H]1OCCN(CCCCCF)[C@@H]1CC2` [(+)-F-Pent-HNO, (4aR,10bR)-4-(5-Fluoropentyl)-3,4,4a,5,6,10b-hexahydro-2H-naphtho[1,2-b][1,4]oxazin-9-ol Hydrochloride], the Kd in data set [1] amounted to 54 nM; in data set [2] it was 25 ± 4 nM. For `Oc1ccc2c(c1)[C@H]1OCCN(CCC[18F])[C@@H]1CC2` [(+)-[^18F]-PHNO, [^18F]-(4aR,10bR)-4-(3-fluoropropyl)-3,4,4a,5,6,10b-hexahydro-2H-naphtho[1,2-b][1,4]oxazin-9-ol], the “peak emission in the caudate nucleus” value in data set [3] (at 10 minutes after i.v. injection) is listed as “about 0.22 % of the injected dose per kg”. For the same compound, the “time of peak emission in the caudate nucleus after intravenous injection” value in data set [3] (bolus plus infusion i.v.) was found to be 10 min. As for `CCCN1CCO[C@@H]2c3cc(O)ccc3CC[C@H]21.Cl` [(+)PHNO, (+)-(4aR,10bR)-3,4,4a,5,6,10b-hexahydro-4-propyl-2H-naphth[1,2-b][1,4]oxazin-9-ol HCl], the “effect in Parkinson's disease” value in data set [4] is “effective in alleviating Parkinson's disease”.
